Test results published in ChEMBL document CHEMBL1201862, “PubChem BioAssay data set” (2004).
Activity calls are given as the source filed them.

Key:
[1] = molecular target: T1, Short transient receptor potential channel 4 (Mus musculus, UniProt Q9QUQ5); assay: block of DAMGO-driven TRPC4 calcium entry – cell-based, HEK293 TRPC4/mu-opioid, Fluo-4 calcium, dose response (AID 434942); format: functional;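 note: potency of inhibitors blocking the TRPC4 calcium response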
T1 sequence (Q9QUQ5 whole entry): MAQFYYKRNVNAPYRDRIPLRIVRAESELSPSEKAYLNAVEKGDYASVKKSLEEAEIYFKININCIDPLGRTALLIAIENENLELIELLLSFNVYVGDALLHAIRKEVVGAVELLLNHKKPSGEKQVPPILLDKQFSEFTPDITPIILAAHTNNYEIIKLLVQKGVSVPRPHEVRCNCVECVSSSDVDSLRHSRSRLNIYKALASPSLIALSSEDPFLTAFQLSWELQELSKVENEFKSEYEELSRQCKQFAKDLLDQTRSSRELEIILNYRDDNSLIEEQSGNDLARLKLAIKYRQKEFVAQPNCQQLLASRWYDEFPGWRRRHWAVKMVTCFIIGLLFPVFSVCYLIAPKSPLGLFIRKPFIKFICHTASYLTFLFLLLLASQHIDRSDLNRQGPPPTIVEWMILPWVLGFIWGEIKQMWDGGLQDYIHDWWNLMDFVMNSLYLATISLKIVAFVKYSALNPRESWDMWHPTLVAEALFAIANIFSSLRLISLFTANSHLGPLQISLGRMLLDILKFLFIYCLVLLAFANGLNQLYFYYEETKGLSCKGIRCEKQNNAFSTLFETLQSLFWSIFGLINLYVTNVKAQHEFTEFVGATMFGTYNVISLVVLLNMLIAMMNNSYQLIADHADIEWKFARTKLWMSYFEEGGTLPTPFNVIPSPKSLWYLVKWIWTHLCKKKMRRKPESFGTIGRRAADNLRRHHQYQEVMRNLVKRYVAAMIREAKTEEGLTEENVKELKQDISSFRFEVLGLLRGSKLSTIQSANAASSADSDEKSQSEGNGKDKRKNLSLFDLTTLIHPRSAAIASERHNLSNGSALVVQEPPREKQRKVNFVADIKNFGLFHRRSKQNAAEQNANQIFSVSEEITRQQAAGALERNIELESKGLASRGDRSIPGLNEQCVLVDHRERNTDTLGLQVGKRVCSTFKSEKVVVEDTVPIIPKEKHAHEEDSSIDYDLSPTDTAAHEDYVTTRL

Large T antigen = Large T antigen (Simian virus 40, UniProt P03070); format: functional, Betapolyomavirus macacae;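 note: Confirmatory-stage PubChem screen for compounds that inhibit SV40 T antigen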
Sequence of Large T antigen (P03070 whole entry): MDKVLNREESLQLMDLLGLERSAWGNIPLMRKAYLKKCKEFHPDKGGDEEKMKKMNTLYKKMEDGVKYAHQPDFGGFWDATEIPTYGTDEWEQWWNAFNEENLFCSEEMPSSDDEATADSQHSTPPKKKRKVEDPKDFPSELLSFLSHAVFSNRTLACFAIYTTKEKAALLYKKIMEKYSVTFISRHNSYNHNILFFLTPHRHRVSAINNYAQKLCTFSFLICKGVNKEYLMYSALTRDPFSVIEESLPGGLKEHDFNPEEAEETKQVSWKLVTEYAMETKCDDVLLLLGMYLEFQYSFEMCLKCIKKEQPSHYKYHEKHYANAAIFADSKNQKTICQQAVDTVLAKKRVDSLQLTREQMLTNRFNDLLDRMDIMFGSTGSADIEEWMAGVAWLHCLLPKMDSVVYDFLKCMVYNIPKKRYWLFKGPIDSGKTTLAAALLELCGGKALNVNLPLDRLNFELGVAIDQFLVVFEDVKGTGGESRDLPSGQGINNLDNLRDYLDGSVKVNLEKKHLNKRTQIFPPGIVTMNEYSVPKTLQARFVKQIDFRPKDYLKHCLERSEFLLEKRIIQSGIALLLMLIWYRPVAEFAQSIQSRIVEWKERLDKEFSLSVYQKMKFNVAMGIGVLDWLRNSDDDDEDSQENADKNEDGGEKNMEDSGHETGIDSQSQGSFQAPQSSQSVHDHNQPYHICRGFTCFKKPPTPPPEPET

[2] = molecular target: T2, Heat shock factor protein 1 (Mus musculus, UniProt P38532); assay: decrease of HSF1-responsive luciferase luminescence – cell-based, NIH3T3, dose retest, confirmation (AID 2382); format: functional;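 note: NIH3T3 fibroblasts with HSF1-driven luciferase reporter stressed by proteasome inhibitor MG132; luminescence from HSF1-driven luciferase expression after 8 hours of MG132 stress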
T2 sequence (P38532 whole entry): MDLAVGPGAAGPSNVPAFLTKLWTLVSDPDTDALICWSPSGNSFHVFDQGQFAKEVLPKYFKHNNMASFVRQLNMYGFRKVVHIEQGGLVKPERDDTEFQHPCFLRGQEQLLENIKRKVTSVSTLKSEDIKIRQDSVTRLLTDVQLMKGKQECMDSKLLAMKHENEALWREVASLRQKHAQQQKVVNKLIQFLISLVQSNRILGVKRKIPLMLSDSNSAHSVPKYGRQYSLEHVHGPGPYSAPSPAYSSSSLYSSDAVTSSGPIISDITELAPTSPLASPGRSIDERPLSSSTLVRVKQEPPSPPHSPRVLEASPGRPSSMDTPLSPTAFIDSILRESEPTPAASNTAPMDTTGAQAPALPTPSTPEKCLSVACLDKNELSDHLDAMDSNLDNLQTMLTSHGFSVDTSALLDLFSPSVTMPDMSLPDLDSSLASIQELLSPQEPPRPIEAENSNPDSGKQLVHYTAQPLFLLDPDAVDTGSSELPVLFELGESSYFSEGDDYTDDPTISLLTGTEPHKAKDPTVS

HEK293 = assay: EBV LMP1 TES2 canonical NF-kB signalling blockers – cell-based, HEK293, luciferase, cherry-pick, dose response (AID 588343); format: functional; settings: Homo sapiens
[3] = HEK-293T cell viability reduction – luminescence, B-cell screen hits, cytotoxicity control for BCR NF-kB inhibitor project, dose response (AID 489021); format: functional, cell-based;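 note: HEK-293T cells carrying an NF-kB luciferase reporter; cells exposed to compound for about 14 hours before viability readout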
[4] = molecular target: T1, Short transient receptor potential channel 4; assay: calcium entry via TRPC4 opening agents – cell-based, HEK293 TRPC4/mu-opioid, Fluo-4 calcium, dose response (AID 434937); format: functional
[5] = molecular target: Delta-type opioid receptor (Homo sapiens, UniProt P41143); assay: Counterscreen for agonists of heterodimerization of the mu 1 (OPRM1) and delta 1 (OPRD1) opioid receptors: Luminescence-based cell-based high throughput dose response assay to identify agonists of OPRD1 homodimerization. [Related pubchem assays (depositor defined):AID504326, AID504355, AID504692, AID504904, AID504905]; format: functional
Sequence of Delta-type opioid receptor (P41143 whole entry): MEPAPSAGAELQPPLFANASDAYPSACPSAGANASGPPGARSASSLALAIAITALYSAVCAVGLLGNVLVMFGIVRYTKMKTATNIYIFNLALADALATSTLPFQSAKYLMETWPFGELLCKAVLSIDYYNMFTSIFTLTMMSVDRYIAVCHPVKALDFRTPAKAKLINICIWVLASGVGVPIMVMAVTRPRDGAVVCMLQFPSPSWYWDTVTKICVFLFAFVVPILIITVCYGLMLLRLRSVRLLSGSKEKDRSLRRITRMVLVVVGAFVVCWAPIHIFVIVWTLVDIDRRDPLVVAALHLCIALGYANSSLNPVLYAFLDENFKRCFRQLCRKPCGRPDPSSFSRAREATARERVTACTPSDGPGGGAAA

Mu-type opioid receptor = Mu-type opioid receptor (Homo sapiens, UniProt P35372); assay: Counterscreen for agonists of heterodimerization of the mu 1 (OPRM1) and delta 1 (OPRD1) opioid receptors: Luminescence-based cell-based high throughput dose response assay to identify agonists of OPRM1 homodimerization.; format: functional;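 note: U2OS cells expressing OPRM1 and beta-arrestin as split beta-galactosidase partners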
Sequence of Mu-type opioid receptor (P35372 whole entry): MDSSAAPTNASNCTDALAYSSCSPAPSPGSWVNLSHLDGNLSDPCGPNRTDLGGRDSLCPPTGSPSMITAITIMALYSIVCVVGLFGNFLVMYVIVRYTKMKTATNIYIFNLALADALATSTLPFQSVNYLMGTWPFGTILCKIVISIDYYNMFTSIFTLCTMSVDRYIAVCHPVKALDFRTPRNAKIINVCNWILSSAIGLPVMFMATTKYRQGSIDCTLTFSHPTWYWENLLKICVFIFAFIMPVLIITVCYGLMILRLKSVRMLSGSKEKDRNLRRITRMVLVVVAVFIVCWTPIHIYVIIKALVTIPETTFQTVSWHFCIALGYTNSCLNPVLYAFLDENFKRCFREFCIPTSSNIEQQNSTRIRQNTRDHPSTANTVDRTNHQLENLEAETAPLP

[6] = molecular target: 5-hydroxytryptamine receptor 5A (Homo sapiens, UniProt P47898); assay: Counterscreen for agonists of OPRM1-OPRD1 heterodimerization: luminescence-based cell-based high throughput dose response assay to identify agonists of 5-hydroxytryptamine (serotonin) 5A receptor (HTR5A). [Related pubchem assays (depositor defined):AID504326, AID504355, AID504692, AID504904, AID504905]; format: functional
Sequence of 5-hydroxytryptamine receptor 5A (P47898 whole entry): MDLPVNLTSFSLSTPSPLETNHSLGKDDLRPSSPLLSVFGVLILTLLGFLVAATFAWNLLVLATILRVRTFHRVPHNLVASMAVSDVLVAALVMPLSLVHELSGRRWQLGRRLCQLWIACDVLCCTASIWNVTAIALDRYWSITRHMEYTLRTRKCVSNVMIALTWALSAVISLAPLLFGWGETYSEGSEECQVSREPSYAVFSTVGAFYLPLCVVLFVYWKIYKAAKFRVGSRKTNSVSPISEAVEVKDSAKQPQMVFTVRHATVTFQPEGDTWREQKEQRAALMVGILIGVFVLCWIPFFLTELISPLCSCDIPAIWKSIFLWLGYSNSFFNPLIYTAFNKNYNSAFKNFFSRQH

[7] = DRD fibroblast viability loss – cell-based, non-viral oncogenic, luminescence, dose response (AID 1934); format: functional; settings: Homo sapiens
[8] = alpha-synuclein stem-loop luciferase translation blockers – H4 neuroglioma cells, luminescence, confirmation (AID 1988); format: functional, cell-based
[9] = luciferase reporter signal suppression in cells – H4 neuroglioma cells, luminescence, dose response (AID 1990); format: functional, cell-based
BJ [10] = assay: BJ-TERT fibroblast viability loss – cell-based, RAS-independent, luminescence, dose response (AID 1933); format: functional; settings: Homo sapiens
BJ [11] = assay: cells; format: functional, cell-based; settings: Homo sapiens
[12] = Luminescence Cell-Based Dose Response HTS to Identify Inhibitors of 5'UTR Stem-Loop Driven Prion Protein mRNA Translation in H4 Neuroglioblastoma Cells. [Related pubchem assays: 1827 (Project Summary), 1813 (Primary HTS)]; format: functional
BJ [13] = assay: BJ-TERT-LT-ST fibroblast viability loss – cell-based, RAS-independent, luminescence, dose response (AID 1935); format: functional; settings: Homo sapiens;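 note: BJ fibroblasts immortalized with TERT plus LT and ST oncogenes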
[14] = HEK-293T viability loss after treatment – luminescence, T-cell screen hits, cytotoxicity control for TCR NF-kB inhibitor project, dose response (AID 489026); format: functional, cell-based;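 note: cells exposed to compound about 14 hours before the viability readout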
[15] = molecular target: Glucose-6-phosphate 1-dehydrogenase (Homo sapiens, UniProt P11413); assay: inhibition of Homo sapiens G6PD, dose series – biochemical, fluorescence, selectivity assay for P. falciparum G6PD inhibitor project, dose response (AID 504792); format: functional
Sequence of Glucose-6-phosphate 1-dehydrogenase (P11413 whole entry): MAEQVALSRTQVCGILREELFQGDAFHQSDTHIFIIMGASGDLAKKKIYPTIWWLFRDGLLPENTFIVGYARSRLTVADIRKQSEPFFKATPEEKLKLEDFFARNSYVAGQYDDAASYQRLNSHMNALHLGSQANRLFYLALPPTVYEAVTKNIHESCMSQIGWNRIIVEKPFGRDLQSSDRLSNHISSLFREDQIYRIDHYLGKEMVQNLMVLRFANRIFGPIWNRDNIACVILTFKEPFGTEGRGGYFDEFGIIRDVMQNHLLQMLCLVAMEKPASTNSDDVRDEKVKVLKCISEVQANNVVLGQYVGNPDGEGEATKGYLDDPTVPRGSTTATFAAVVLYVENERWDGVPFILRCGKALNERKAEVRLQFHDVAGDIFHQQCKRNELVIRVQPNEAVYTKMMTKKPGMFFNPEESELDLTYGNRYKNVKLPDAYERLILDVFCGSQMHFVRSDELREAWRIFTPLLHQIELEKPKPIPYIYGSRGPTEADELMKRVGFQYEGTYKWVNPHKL

[16] = Vero E6 cell cytotoxicity, dose response, cytotoxicity control for non-replicating M. tuberculosis project, secondary assay (AID 492998); format: functional, VeroE6; settings: Vero C1008
cells = format: functional
[17] = THP-1 cell cytotoxicity, dose response, cytotoxicity control for non-replicating M. tuberculosis project (AID 489025); format: functional
[18] = Luminescence Cell-Based Dose Retest to Confirm Inhibitors of Cancer Stem Cells. [Related pubchem assays (depositor defined):AID2717, AID2721]; format: functional; settings: Homo sapiens

O=C1COc2ccc(N3C(=O)C=CC3=O)cc2N1
EC50 [1]: 6.68 µM (active)
IC50 (Large T antigen): > 100 µM (active)
EC50 [2]: 9.09 µM (active)

Cc1nn(C(C)(C)C)c(C)c1/C=N/OC(=O)Nc1ccc(Cl)c(Cl)c1
AC50 (HEK293): 0.839 µM (active)
IC50 [3]: > 80 µM (inactive)
EC50 [2]: < 0.16 µM (active)

CN(C)CCCN(C(=O)c1ccc(S(=O)(=O)N2CCc3ccccc3C2)cc1)c1nc2c(F)cc(F)cc2s1
EC50 [4]: 1.19 µM (active)
EC50 [5]: > 92.5 µM (inactive)
EC50 (Mu-type opioid receptor): 5.1 µM (active)
EC50 [6]: > 92.5 µM (inactive)

OCCNCc1cc(Br)ccc1OCc1ccc(Cl)cc1Cl
EC50 [1]: 3.35 µM (active)

COc1ccc(S(=O)(=O)Nc2cc3c(C(C)=O)c(C)oc3c3ccccc23)cc1
EC50 [7]: 1.91 µM (active)
EC50 [8]: 0.294 µM (active)
EC50 [9]: 2.35 µM (active)
EC50 (BJ [10]): 1.59 µM (active)
EC50 (BJ [11]): 4.49 µM (active)
EC50 [12]: 2.67 µM (active)
EC50 (BJ [13]): 1.26 µM (active)
IC50 [3]: > 80 µM (inactive)

O=C(c1cc(-c2ccncc2)nc2c(Cl)cccc12)N1CCN(c2ccccc2F)CC1
EC50 [7]: 12.8 µM (inconclusive)
EC50 [8]: 3.67 µM (active)
EC50 [9]: 7.93 µM (inconclusive)
EC50 (BJ [10]): 8.6 µM (inconclusive)
IC50 [14]: > 80 µM (inactive)
EC50 (BJ [11]): 18.9 µM (active)
EC50 [12]: > 120 µM (not active)
EC50 (BJ [13]): 4.08 µM (active)

COc1ccc(N=C2C(=S)N(c3ccc(OC)cc3)C(=NS(=O)(=O)c3ccccc3)N2c2ccccc2)cc1
IC50 [15]: > 80 µM (inactive)

CN1CCN(c2nc(-c3cccnc3)nc3scc(-c4ccccc4)c23)CC1
EC50 [1]: 11.9 µM (active)

FC(F)(F)c1nnc2ccc(Cl)nn12
CC50 [16]: > 20 µM (active)
IC50 (cells): 1.82 µM (active)
CC50 [17]: 8.62 µM (active)

CCc1cccc(C)c1N=C(S)NCC(c1cccnc1)N(C)C (stereo unspecified)
EC50 [4]: 0.0467 µM (active)
EC50 [5]: 79.4 µM (inactive)
EC50 (Mu-type opioid receptor): > 92.5 µM (inactive)
EC50 [6]: > 92.5 µM (inactive)

CC(C)(C)c1ccc(O)c(O)c1
IC50 [15]: > 80 µM (inactive)
AC50 [18]: 4.47 µM (active)

CCOC(=O)C1(CC2CC2)CCN(Cc2cnc(-c3ccccc3C)nc2)CC1
EC50 [4]: 5.31 µM (active)
EC50 [5]: > 92.5 µM (inactive)
EC50 (Mu-type opioid receptor): > 92.5 µM (inactive)
EC50 [6]: > 92.5 µM (inactive)

Cc1nc([N+](=O)[O-])c(Br)n1Cc1ccccc1
CC50 [16]: > 20 µM (active)
IC50 (cells): 9.77 µM (active)
CC50 [17]: 30.1 µM (active)

O=C(Nc1nnc(S(=O)(=O)N2CCOCC2)s1)c1ccc(F)cc1
IC50 [15]: > 80 µM (inactive)
